According to the supplement of paper PMC4862054:

What was measured:
Details in all cases: incubation time: 72 h
[1] = tested on: MFM-223; experiment: drug sensitivity score (DSS), CellTox Green (DSS (AUC-based score)); higher = stronger drug effect (viability inhibition or cytotoxicity); extreme values may be limits of the assay
Summary of the method: (§1)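 The drug sensitivity score was computed from the area under the fitted dose-response curve. Breast cancer cell lines in 20 µl suspension went into 384-well plates holding compound at 5 concentrations (10-fold steps over a 10,000-fold, compound-specific range) for 72 h of incubation. CellTox Green fluorescence (485/520 nm) was read before CellTiter-Glo luminescence, the latter after 10 min at room temperature, and each plate was normalised to 0.1 % DMSO and a positive kill control.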

[2] = tested on: CAL-120; experiment: as above
Summary of the method: as §1

[3] = tested on: MFM-223; experiment: normalised response (% of control), CellTox Green; higher = less cell death (100 = DMSO, 0 = benzethonium chloride kill control)
Summary of the method: (§2)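 Breast cancer cell lines (20 µl suspension) were seeded into 384-well plates holding compound at 5 concentrations in 10-fold steps over a compound-specific 10,000-fold range, then incubated 72 h. CellTox Green fluorescence (485/520 nm) was read first, then CellTiter-Glo luminescence after 10 min at room temperature. Each plate was normalised to 0.1 % DMSO (100) and a positive kill control (0). Each value is the normalised signal at a single concentration of the series.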

[4] = tested on: CAL-120; experiment: as above
Summary of the method: as §2

[5] = tested on: CAL-85-1; experiment: as above
Summary of the method: as §2

[6] = tested on: BT-549; experiment: as above
Summary of the method: as §2

[7] = tested on: CAL-51; experiment: as above
Summary of the method: as §2

[8] = tested on: CAL-148; experiment: as above
Summary of the method: as §2

[9] = tested on: HDQ-P1; experiment: as above
Summary of the method: as §2

[10] = tested on: DU-4475; experiment: as above
Summary of the method: as §2

[11] = tested on: BT-474; experiment: as above
Summary of the method: as §2

SMILES	drug sensitivity score [1]	drug sensitivity score [2]	normalised response [3] [%]	normalised response [4] [%]	normalised response [5] [%]	normalised response [6] [%]	normalised response [7] [%]	normalised response [8] [%]	normalised response [9] [%]	normalised response [10] [%]	normalised response [11] [%]
O=[N+]([O-])c1ccc2c(c1)S(=O)(=O)C=C2 [Stattic]	16.3	2.06	–	–	–	–	–	–	–	–	–
CC(C)n1cnc2c(NCCc3ccc(O)cc3)nc(-c3csc4ccccc34)nc21 [StemRegenin 1]	5.31	0	–	–	–	–	–	–	–	–	–
CCn1c(C(=O)N(C2CC2)C2CC2)cc2c3c(ncn3C)c(Nc3cc(C)n(C)n3)nc21	0	0	–	–	–	–	–	–	–	–	–
CC1(C)CCC(c2ccc(Cl)cc2)=C(CN2CCN(c3ccc(C(=O)NS(=O)(=O)c4ccc(N[C@H](CCN5CCOCC5)CSc5ccccc5)c(S(=O)(=O)C(F)(F)F)c4)cc3)CC2)C1 [Navitoclax] (10000 nM)	–	–	66.2	13.6	76.8	97.3	31.9	74.6	-0.28	89.8	70.3
CNC(=O)c1ccccc1Sc1ccc2c(/C=C/c3ccccn3)n[nH]c2c1 [Axitinib] (10000 nM)	–	–	97.7	92.5	75.7	90.9	40.2	22.8	58.1	108	99.4
CCNC(=O)c1noc(-c2cc(C(C)C)c(O)cc2O)c1-c1ccc(CN2CCOCC2)cc1 [NVP-AUY922] (100 nM)	–	–	78.3	90.3	63.1	140	64.1	21.6	62.8	65.5	80
Cc1nc(C(=O)NCC(=O)O)c(O)c2ccc(Oc3ccccc3)cc12 [FG-4592]	0	0	–	–	–	–	–	–	–	–	–
C/C(=C\c1csc(C)n1)[C@@H]1C[C@@H]2O[C@]2(C)CCC[C@H](C)[C@H](O)[C@@H](C)C(=O)C(C)(C)[C@@H](O)CC(=O)N1 [Ixabepilone] (1000 nM)	–	–	105	99.3	14.6	62.7	33.8	100	96.2	101	58.1
C=CCN(/C=C1/C(=O)O[C@H](COC)[C@@]2(C)C1=C(O)C(=O)C1=C2[C@H](OC(C)=O)C[C@]2(C)C(=O)CC[C@@H]12)CC=C [Sonolisib]	0	0	–	–	–	–	–	–	–	–	–
CC1(COc2ccc3c(c2)ncn3-c2ccc3cccc(N4CCC(N)CC4)c3n2)COC1 [Crenolanib]	0	0	–	–	–	–	–	–	–	–	–
CO[C@@H]1[C@H](N(C)C(=O)c2ccccc2)C[C@H]2O[C@]1(C)n1c3ccccc3c3c4c(c5c6ccccc6n2c5c31)C(=O)NC4 [Midostaurin] (10000 nM)	–	–	93.1	80.8	97.5	25.2	-24.3	66.4	55.3	88.6	87.9
CO[C@@H]1[C@H](N(C)C(=O)c2ccccc2)C[C@H]2O[C@]1(C)n1c3ccccc3c3c4c(c5c6ccccc6n2c5c31)C(=O)NC4 [Midostaurin] (1000 nM)	–	–	78.8	91.7	92.1	54	-37.7	67.4	93	87.7	83.7
Cc1cc(Nc2nc(N[C@@H](C)c3ncc(F)cn3)ncc2Cl)[nH]n1 [AZD1480] (1000 nM)	–	–	41.5	87.1	109	88.9	69.4	85.8	69.3	98.2	95.3
CCNC(=O)c1noc(-c2cc(C(C)C)c(O)cc2O)c1-c1ccc(CN2CCOCC2)cc1 [NVP-AUY922] (1000 nM)	–	–	98.3	88.4	37.6	117	48.1	42.9	68.8	72.5	55.9
CO[C@@]12[C@H](COC(N)=O)C3=C(C(=O)C(C)=C(N)C3=O)N1C[C@@H]1N[C@@H]12 [Mitomycin C] (1000 nM)	–	–	101	100	97.6	123	35.3	97.8	106	94.7	94.9
CC[C@H](CO)Nc1nc(NCc2ccccc2)c2ncn(C(C)C)c2n1 [Seliciclib]	1.03	0	–	–	–	–	–	–	–	–	–
CN(C)C(=N)NC(=N)N [Metformin]	0	0	–	–	–	–	–	–	–	–	–

SMILES	drug sensitivity score [1]	drug sensitivity score [2]	normalised response [3] [%]	normalised response [4] [%]	normalised response [5] [%]	normalised response [6] [%]	normalised response [7] [%]	normalised response [8] [%]	normalised response [9] [%]	normalised response [10] [%]	normalised response [11] [%]
Cn1cc(C2=C(c3cn(C4CCN(Cc5ccccn5)CC4)c4ccccc34)C(=O)NC2=O)c2ccccc21 [Enzastaurin] (1000 nM)	–	–	82	103	97.7	143	104	60	87.7	104	105
CC(=O)[C@]1(O)Cc2c(O)c3c(c(O)c2[C@@H](O[C@H]2C[C@H](N)[C@H](O)[C@H](C)O2)C1)C(=O)c1ccccc1C3=O [Idarubicin] (1000 nM)	–	–	37.8	55.6	-10.6	84.2	-13.1	28.9	85.6	81.7	65.2
CCNC(=O)CCC/C=C\C[C@@H]1[C@@H](/C=C/[C@@H](O)CCc2ccccc2)[C@H](O)C[C@@H]1O [Bimatoprost] (5500 nM)	–	–	97.4	98.4	106	121	112	100	79.9	99.7	57
CC(C)(C)c1nc(-c2cccc(NS(=O)(=O)c3c(F)cccc3F)c2F)c(-c2ccnc(N)n2)s1 [Dabrafenib]	0	0	–	–	–	–	–	–	–	–	–
CC(C)(C)NC(=O)[C@H]1CC[C@H]2[C@@H]3CC[C@H]4NC(=O)C=C[C@]4(C)[C@H]3CC[C@]12C [Finasteride] (1000 nM)	–	–	93.2	99.4	107	109	107	104	113	103	99.4
C=CCn1c(=O)c2cnc(Nc3ccc(N4CCN(C)CC4)cc3)nc2n1-c1cccc(C(C)(C)O)n1 [MK1775] (1000 nM)	–	–	68.5	79.1	25.9	74.9	17.8	-11.1	48.7	87	68.6
O=C(O)CNC(=O)c1c(O)c2ccccc2n(Cc2ccccc2)c1=O [IOX-2]	0	0	–	–	–	–	–	–	–	–	–
COc1cc(Nc2c(C#N)cnc3cc(OCCCN4CCN(C)CC4)c(OC)cc23)c(Cl)cc1Cl [Bosutinib] (10000 nM)	–	–	81.3	65.6	-81.2	33.1	38.5	49	31.8	86.5	19.3
CC1(C)CCC(c2ccc(Cl)cc2)=C(CN2CCN(c3ccc(C(=O)NS(=O)(=O)c4ccc(N[C@H](CCN5CCOCC5)CSc5ccccc5)c(S(=O)(=O)C(F)(F)F)c4)cc3)CC2)C1 [Navitoclax] (1000 nM)	–	–	95.8	50.3	79.3	95.6	60.1	71.7	54.7	90.2	89.1
CC(C)C[C@H](NC(=O)[C@@H](COC(C)(C)C)NC(=O)[C@H](Cc1ccc(O)cc1)NC(=O)[C@H](CO)NC(=O)[C@H](Cc1c[nH]c2ccccc12)NC(=O)[C@H](Cc1cnc[nH]1)NC(=O)[C@@H]1CCC(=O)N1)C(=O)N[C@@H](CCCNC(=N)N)C(=O)N1CCC[C@H]1C(=O)NNC(N)=O [Goserelin] (1000 nM)	–	–	83.2	102	106	124	105	102	107	96.9	99.8
Cn1cc(C2=C(c3cn(C4CCN(Cc5ccccn5)CC4)c4ccccc34)C(=O)NC2=O)c2ccccc21 [Enzastaurin] (10000 nM)	–	–	100	79.2	65	94.8	95.7	105	101	111	95.5
Cc1cn(-c2cc(NC(=O)c3ccc(C)c(Nc4nccc(-c5cccnc5)n4)c3)cc(C(F)(F)F)c2)cn1 [Nilotinib] (1000 nM)	–	–	103	97	101	85.9	86.3	106	79.2	101	88.8
Nc1ccn([C@@H]2O[C@H](CO)[C@@H](O)C2(F)F)c(=O)n1 [Gemcitabine] (100 nM)	–	–	101	100	87.8	95	32.1	48.3	87.8	98.8	98.1
COc1ccc(S(=O)(=O)Nc2cccnc2Nc2ccc(O)cc2)cc1 [ABT-751] (10000 nM)	–	–	35.7	92	50.8	77.8	32.5	81.8	107	107	67.4
O=C(CCCCCCC(=O)Nc1ccccc1)NO [Vorinostat] (10000 nM)	–	–	80.3	36.3	51.7	74.8	-6.76	45.5	103	76	32.6
CC(O)(CS(=O)(=O)c1ccc(F)cc1)C(=O)Nc1ccc(C#N)c(C(F)(F)F)c1 (stereo not drawn) [Bicalutamide] (10000 nM)	–	–	100	103	67.6	116	92.2	105	66.2	104	103
CN[C@@H](C)C(=O)N[C@H]1CN(C(=O)CC(C)C)CC[C@H]2CC[C@@H](C(=O)NC(c3ccccc3)c3ccccc3)N2C1=O [AT-406]	0	–	–	–	–	–	–	–	–	–	–
